Assays:
fatigue rats [1] = test: Weighted swimming test in water immersion load fatigue rats (stress fatigue), intraperitoneal administration; type: in vivo, SD rats; conditions: CQA 300 mg/kg intraperitoneally once a day for 5 days; swim on the 6th day with weight 8% of body weight, water of 23° C.; vs normal saline control
Method: SD rats (male, 7-week-old, n=4 to 12) were bred for 5 days in a cage wherein the water depth had been set at 1.5 cm (23±1° C.) (1 rat/1 cage), so as to produce fatigue rats. It is to be noted that the water in such a cage was exchanged with fresh one every day. From the first day, a test sample or a normal saline solution used as a control was intraperitoneally administered to the rats once a day. At the same time, rats, which had been bred on a common bedding, were defined as normal rats, and from the first day, a normal saline solution was intraperitoneally administered to them once a day. After completion of the breeding for 5 days, a weight that was 8% of the body weight was attached to the tail portion of each rat on the 6th day, and the rat was then allowed to swim in water of 23° C. The time required until the nose was submerged in water for 10 or more seconds was measured, and the thus measured time was evaluated as a fatigue level caused by stress. For the test group, chlorogenic acid (CQA 300 mg/kg) was used. For the control group, a normal saline solution was used.

fatigue rats [2] = test: Weighted swimming test in water immersion central fatigue model rats, administration in drinking water; type: in vivo, SD rats; conditions: 0.25% (W/V) in drinking water (370 mg/kg/day), oral; 3 days water immersion; swim on the 4th day with weight 8% of body weight; vs distilled water control
Method: A test sample or distilled water used as a control was administered in the form of drinking water to SD rats (male, 6-week-old, n=3 to 6). Thereafter, the rats were bred for 3 days in a cage wherein the water depth had been set at 1.5 cm (23±1° C.) (1 rat/1 cage), so as to produce fatigue rats. It is to be noted that the water in such a cage was exchanged with fresh one every day. At the same time, rats, which had been bred on a common bedding, were defined as normal rats. After completion of the breeding for 3 days, a weight that was 8% of the body weight was attached to the tail portion of each rat on the 4th day, and the rat was then allowed to swim in water of 23° C. The time required until the nose was submerged in water for 10 or more seconds was measured, and the thus measured time was evaluated as a fatigue level caused by central fatigue (chronic fatigue). This model has been known as a central fatigue model (Non-Patent Document 1 and Neurosci. Lett. 352 (2003), 159-162). For the test group, 0.25% (W/V) chlorogenic acid (370 mg/kg/day) was used. For the control group, distilled water was used.

## O=C(/C=C/c1ccc(O)c(O)c1)O[C@@H]1C[C@](O)(C(=O)O)C[C@@H](O)[C@H]1O [chlorogenic acid]
Fatigue rats [1]
  fatigue level caused by stress (swimming time until the nose was submerged in water for 10 or more seconds): attenuated
Fatigue rats [2]
  fatigue level caused by central fatigue (chronic fatigue) (swimming time until the nose was submerged in water for 10 or more seconds): attenuated
